Reference: patent publication US11939402B2, “Antifungal peptides, compounds including the same, and methods of use thereof” (priority 2022, dated 2024)
≈ marks a conversion by molar mass, not a printed value. Read-outs that look alike come from different tables or passages of the source. Where a SMILES comes first, the peptide text is derived from it. The star is where a group is joined. Myristoyl = CCCCCCCCCCCCCC(=O)*

What was measured:
[1] = system: C. neoformans wild type strain H99; details: for FIC ug/mL H99 Peptide: concentration of the peptide in combination with caspofungin
Description: Microbes were prepared in the same manner as the MIC assay. […] 100 μL of RPMI media was added to the first 8 wells in the first row. […] The 100 μL of media with drug was serially diluted from the first row to the final row. […] Column 11 was the no growth control, and 12 was the no drug control. The plate was inoculated with microbes in the same manner as the MIC assay. Again, 200 uL was the operating volume, 500 CFU per well, 2.5*10^3 cell/mL. Plates were incubated for 48 hours at 37° C. and read thereafter. The Fractional Inhibitory Concentration Index were calculated as follows:
Where the MICA and MICB are the MIC values of drugs A and B alone and FICA and FICB are the Fractional Inhibitory concentrations of drugs A and B in the presence of each other, respectively.

[2] = system: C. neoformans cdc50Δ mutant strain; type: cell-based, Cryptococcus neoformans; details: alone
Description: (§1) The assays followed standard CLSI protocol for broth microdilution assays using yeasts.(32) Microbes were passaged in YPD media at 37° C. with mixing for 2 days before harvesting with an inoculation loop to prepare monocultures on Sabouraud Dextrose Agar (SDA) plates. Monocultures on SDA plates were incubated for 2 days at 37° C. before harvesting cells for microdilution assays. RPMI media (100 μL) was charged to each of the 96 wells in a 96 well plate, with an additional 100 μL in the first column. Peptide-DMSO solution (4 μL) at 12.8 mg/mL was charged to each of the wells in the first column. The 100 μL was serially diluted by a factor of 2 from the first column to the 11th column. Microbe inoculant was then prepared. An inoculation loop was used to transfer 1-3 colonies of cells to 1 mL phosphate buffer solution (PBS). The PBS and microbe solution was made uniform by vortex mixing. Cell concentration was computed by comparing the absorbance at 530 nm to 1× McFarland standard solution and multiplying the resulting ratio by 10^7 cell/mL conversion factor. Plate inoculant was prepared by diluting the PBS microbe solution to 5000 cell/mL, in RPMI media. A 100 μL aliquot of cells was transferred to each of the wells on the plate other than column 11 for the no growth control. The operating volume was 200 μL, with 500 CFU per well for a final concentration of 2.5*10^3 cells/mL.

C. neoformans cells = assay: AF350-Annexin V / propidium iodine flow cytometry assay (exofacial phosphatidylserine); type: cell-based, Cryptococcus neoformans; details: 0.128 mg/mL peptide, 20 minutes at 25° C.; control 0.2±0.1%
Description: Stock microbes were defrosted from the −80° C. freezer and were passed twice for 48 hours each in YPD media. The YPD media was removed by spinning down and the supernatant was decanted. Pelletized cells were resuspended in 1 mL PBS media and washed for 5 minutes with incubation at 25° C. and 250 RPM. Washed cells were spun down again and suspended in 1 mL of PBS solution. cells were diluted 20-fold into 1 mL fungal working solution in an eppendorf. Cell concentration was quantified via comparison to 1× McFarlain's standard on a plate reader using the absorbance value at 530 nm. An aliquot of 1*10^6 cells in 100 μL was created (1*10^7 cell/mL). […] The cells were incubated for 20 minutes at 25° C. and 250 RPM. Baseline and experimental samples were prepared in triplicate. Cells were stained using an operating concentration of 0.001 mg/mL Propidium Iodine (PI) and a 40-fold dilution of AlexaFluor 350 labelled annexin V as per manufactures instructions. After staining the cells, samples were spun down and supernatant decanted. Cells were then fixed in 4% formaldehyde for 5 minutes. Fixed cells were spun down and supernatant decanted and resuspended in 400 μL 1% formaldehyde for flowcytometry. Samples were collected at a slow flow rate on a MACS Quant 10 device (Miltenyi Biotech, Auburn, CA) with 20,000 events collected per injection.
It was sought to determine whether the activities of the peptides were related to the lipid-flipping activity of the P4-ATPase. […] The intensity of the AF350-annexin V signal corresponds to concentration of PS on the exofacial side of the membrane. The propidium iodine signal corresponds to cell viability.
Single cells were first selected and gated based on morphology to ensure homogeneity among the cell population (4A, 4B). Cells with low propidium iodine intensity (PI-A<9 RU) and high AF350-annexin V intensity (Annexin V-A>9 RU) (4C, 4D) were examined. Under these gating parameters there should be, respectively, low non-specific cell death and high exofacial PS.

[3] = system: human red blood cells (RBCs); details: 1 hour 37° C.; relative to Triton X-100 control
Description: Hemolysis assays were preformed using human red blood cells (RBCs), which were provided by Interstate Blood Bank (Philadelphia, PA) and stored immediately at 4° C. upon arrival. […] Free heme was extracted from stored RBCs washing in PBS with gentle centrifugation at 1000 RPM for 5 minutes. Washed cells resuspended to 4 mL in PBS and counted using a hemocytometer. […] Red blood cells were adjusted to 5*10^8 cells/mL and 50 uL was added to each of the wells. Operating conditions were 100 μL and 2.5*10^8 cell/mL. The positive control used as 2 μL of 1% Triton X-100. The plate was incubated at 37° C. for 1 hour. The resulting plate was spun down at 1000 RPM for 5 minutes. 20 μL supernatant was transferred to 80 μL PBS in a fresh 96 well plate for analysis (operating volume 100 μL.) A Spectra Max 340 plate reader (Molecular Devices, Sunnyvale, CA) was used to measure the absorbance of the analysis plate at 410 nm. The scans were run in triplicate. Averages and standard deviations between scans and replicates were computed. The negative control was subtracted from all the data points. The resulting corrected data was normalized by the corrected positive control.

[4] = system: C. neoformans cdc50Δ mutant strain; type: cell-based, Cryptococcus neoformans; details: for FIC ug/mL ΔCDC50 Peptide: concentration of the peptide in combination with caspofungin; for FIC Index ΔCDC50: peptide with caspofungin, ΔCDC50 (table S1)
Description: The Fractional Inhibitory Concentration Index were calculated as follows: […]

[5] = system: C. neoformans wild type strain H99; assay: microbe, parasite or virus in culture; type: cell-based, Cryptococcus neoformans; details: for MIC ug/mL H99 / MIC: alone
Description: as §1, with “Peptide-DMSO solution (4 μL) at 12.8 mg/mL was charged to each of the wells in the first column.” left out

C. neoformans H99 = assay: SDS and plate spotting assay; type: cell-based, Cryptococcus neoformans; details: H99 pre-treated with peptide at 128 for one hour; versus untreated or DMSO controls
Description: To test cell integrity, C. neoformans strains from 3 ml YPD overnight cultures were washed, resuspended, and serially diluted (1:10) in dH2O and spotted (5 μl) on YPD agar plates or YPD agar plates containing 0.03% SDS and incubated for 2 days at 30° C. and 37° C.
Of each strain, yeast cells were inoculated into liquid YPD with 128 μg/ml or 64 μg/ml peptide and co-incubated for 1 h at 30° C. And then, ten-fold serial dilutions were prepared, and 5 μl of each was spotted on YPD and YPD agar plates containing 0.03% SDS. The results were photographed after a 48 h incubation. Their growth was determined by serial dilutions and the fungal colonies were assessed by CFU numbers.
Briefly, cultures of C. neoformans were grown in YPD and then spotted on YPD plates containing 0.03% SDS.

[6] = system: C. neoformans wild type strain H99; details: earlier mutation study; cited from earlier work
[7] = system: C. neoformans cdc50Δ mutant strain; details: earlier mutation study / literature; cited from earlier work
[8] = wild-type H99, read at 24 and 48 hours, 37° C.
[9] = against C. neoformans H99 wild type

Compound	FIC ug/mL H99 Peptide ([1]; H99) [µg/mL]	MIC ug/mL ΔCDC50 [2] [µg/mL]	percentage of cells with low propidium iodine intensity (PI-A<9 RU) and high AF350-annexin V intensity (Annexin V-A>9 RU) (C. neoformans cells)	FIC ug/mL ΔCDC50 Peptide [4] [µg/mL]	MIC ug/mL H99 [5, 8] [µg/mL]	MIC [5, 9] [µg/mL]	FIC Index ΔCDC50 [4]	also measured
CCCCCCCCCCCCCC(=O)N[C@@H](Cc1c[nH]c2ccccc12)C(=O)NCC(=O)NCC(=O)N[C@H](C(=O)N[C@@H](CCCCN)C(=O)N[C@@H](CCCCN)C(=O)N[C@@H](CC(N)=O)C(=O)N[C@@H](Cc1ccc(O)cc1)C(=O)N[C@@H](C)C(=O)O)[C@@H](C)CC [AW9-Ma] (Myristoyl-WGGIKKNYA-OH)	16	2 (≈ 1.6 µM)	67.6%±2.3	0.125	64 (≈ 51.3 µM)	–	–	MIC of caspofungin in the presence of the AW9-Ma peptide ([1]; C. neoformans wild type): 4 µg/mL; hemolysis of human RBC [3]: low amounts of hemolysis; growth (colony forming units) on agar medium with 0.03% SDS (C. neoformans H99): significantly reduced growth
CCCCCCCCCCCCCC(=O)N[C@@H](Cc1c[nH]c2ccccc12)C(=O)NCC(=O)NCC(=O)N[C@H](C(=O)N[C@@H](C)C(=O)N[C@@H](C)C(=O)N[C@@H](CC(N)=O)C(=O)N[C@@H](Cc1ccc(O)cc1)C(=O)N[C@@H](C)C(=O)O)[C@@H](C)CC [K5A;K6A-Ma] (Myristoyl-WGGIAANYA-OH)	–	–	1.3±0.9%	–	–	>128	–	–
CC[C@H](C)C[C@H](C)CCCCCCCCC(=O)N[C@H]1C[C@@H](O)[C@@H](NCCN)NC(=O)[C@@H]2[C@@H](O)CCN2C(=O)[C@H]([C@H](O)CCN)NC(=O)[C@H]([C@H](O)[C@@H](O)c2ccc(O)cc2)NC(=O)[C@@H]2C[C@@H](O)CN2C(=O)[C@H]([C@@H](C)O)NC1=O [Caspofungin, reference compound]	–	4 (≈ 3.66 µM)	–	–	–	–	–	MIC of caspofungin in wild-type strain H99 [6]: 16 µg/mL; MIC of caspofungin in cdc50Δ [7]: 4 µg/mL; MIC ([5]; Cryptococcus neoformans, wild-type H99, read at 24 and 48 hours, 37° C., read-out: MIC ug/mL H99): 16 µg/mL (≈ 14.6 µM)
H-SESGIAWGGIKKNYA-OH [AS15]	0.5	128	–	0.5	>128	–	0.25	growth in MIC plate wells compared to the no drug control ([5]; visual inspection of the MIC plates, H99): stronger and more confluent growth
CCCCCCCCCCCCCC(=O)N[C@@H](Cc1c[nH]c2ccccc12)C(=O)NCC(=O)NCC(=O)N[C@H](C(=O)N[C@@H](C)C(=O)N[C@@H](CCCCN)C(=O)N[C@@H](CC(N)=O)C(=O)N[C@@H](Cc1ccc(O)cc1)C(=O)N[C@@H](C)C(=O)O)[C@@H](C)CC [Peptide K5A-Ma] (Myristoyl-WGGIAKNYA-OH)	–	–	5.6±0.1%	–	–	>128	–	–
CCCCCCCCCCCCCC(=O)N[C@@H](CO)C(=O)N[C@@H](CCC(=O)O)C(=O)N[C@@H](CO)C(=O)NCC(=O)N[C@H](C(=O)N[C@@H](C)C(=O)N[C@@H](Cc1c[nH]c2ccccc12)C(=O)NCC(=O)NCC(=O)N[C@H](C(=O)N[C@@H](CCCCN)C(=O)N[C@@H](CCCCN)C(=O)N[C@@H](CC(N)=O)C(=O)N[C@@H](Cc1ccc(O)cc1)C(=O)N[C@@H](C)C(=O)O)[C@@H](C)CC)[C@@H](C)CC [AS15-Ma] (Myristoyl-SESGIAWGGIKKNYA-OH)	0.5	8 (≈ 4.47 µM)	12.1±2.0%	0.25	>128	–	0.094	MIC of caspofungin in the presence of peptide ([1]; 0.5 μg/mL peptide, H99, caspofungin alone 16 μg/mL): 8 µg/mL; FIC Index H99 ([1]; peptide with caspofungin, H99 (table S1)): 0.5-1
